Among the data in patent US8937064B2, “Pyrazolo[1,5-a]pyrimidines useful as JAK2 inhibitors” (Vertex Pharmaceuticals Incorporated, priority 2007, dated 2015) are Ki values, retold here.

For one experiment, the target named is JAK-2 enzyme (Homo sapiens, UniProt O60674). The experiment can be described thus: JAK2 Inhibition Assay.
The target of a further experiment is T1, JAK3 (Homo sapiens, UniProt P52333).
T1 sequence (P52333 1-1124): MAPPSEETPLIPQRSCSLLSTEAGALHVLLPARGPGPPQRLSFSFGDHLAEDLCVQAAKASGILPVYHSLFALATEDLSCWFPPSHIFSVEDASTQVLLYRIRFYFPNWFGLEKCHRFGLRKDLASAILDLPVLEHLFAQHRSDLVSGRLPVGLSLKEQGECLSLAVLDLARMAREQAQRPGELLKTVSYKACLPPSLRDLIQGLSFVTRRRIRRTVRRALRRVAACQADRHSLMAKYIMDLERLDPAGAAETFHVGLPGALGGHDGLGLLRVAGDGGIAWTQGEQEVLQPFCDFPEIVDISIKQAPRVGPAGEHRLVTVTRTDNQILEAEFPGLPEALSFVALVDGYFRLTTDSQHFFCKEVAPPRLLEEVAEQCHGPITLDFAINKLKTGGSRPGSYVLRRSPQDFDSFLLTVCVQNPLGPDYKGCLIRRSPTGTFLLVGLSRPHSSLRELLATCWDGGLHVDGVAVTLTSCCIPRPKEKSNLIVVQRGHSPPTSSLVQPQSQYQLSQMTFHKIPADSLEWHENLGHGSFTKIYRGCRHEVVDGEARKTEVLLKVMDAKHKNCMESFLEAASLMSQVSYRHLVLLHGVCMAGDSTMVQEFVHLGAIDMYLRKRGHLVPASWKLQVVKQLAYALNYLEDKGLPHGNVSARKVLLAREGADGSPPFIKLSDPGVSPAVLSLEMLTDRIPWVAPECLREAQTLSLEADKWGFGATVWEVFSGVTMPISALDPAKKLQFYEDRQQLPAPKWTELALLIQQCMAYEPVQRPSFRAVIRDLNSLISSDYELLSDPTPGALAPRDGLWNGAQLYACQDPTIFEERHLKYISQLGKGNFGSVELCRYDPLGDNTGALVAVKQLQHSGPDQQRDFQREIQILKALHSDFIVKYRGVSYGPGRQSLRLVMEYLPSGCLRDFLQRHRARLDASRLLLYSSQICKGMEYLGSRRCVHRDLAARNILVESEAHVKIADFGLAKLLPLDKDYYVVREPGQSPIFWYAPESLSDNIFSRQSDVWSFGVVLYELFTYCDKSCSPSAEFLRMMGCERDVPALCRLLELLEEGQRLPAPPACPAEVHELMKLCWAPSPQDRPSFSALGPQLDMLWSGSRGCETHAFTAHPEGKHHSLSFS
Kind of experiment: JAK3 Inhibition Assay. The following applies: 1 nM JAK3, 1 μM poly(Glu)4Tyr, 5 μM ATP, 25° C., 33P incorporation. It counts as biochemical.

Bounds are passed on as bounds.

Sequence of JAK-2 enzyme (O60674 whole entry): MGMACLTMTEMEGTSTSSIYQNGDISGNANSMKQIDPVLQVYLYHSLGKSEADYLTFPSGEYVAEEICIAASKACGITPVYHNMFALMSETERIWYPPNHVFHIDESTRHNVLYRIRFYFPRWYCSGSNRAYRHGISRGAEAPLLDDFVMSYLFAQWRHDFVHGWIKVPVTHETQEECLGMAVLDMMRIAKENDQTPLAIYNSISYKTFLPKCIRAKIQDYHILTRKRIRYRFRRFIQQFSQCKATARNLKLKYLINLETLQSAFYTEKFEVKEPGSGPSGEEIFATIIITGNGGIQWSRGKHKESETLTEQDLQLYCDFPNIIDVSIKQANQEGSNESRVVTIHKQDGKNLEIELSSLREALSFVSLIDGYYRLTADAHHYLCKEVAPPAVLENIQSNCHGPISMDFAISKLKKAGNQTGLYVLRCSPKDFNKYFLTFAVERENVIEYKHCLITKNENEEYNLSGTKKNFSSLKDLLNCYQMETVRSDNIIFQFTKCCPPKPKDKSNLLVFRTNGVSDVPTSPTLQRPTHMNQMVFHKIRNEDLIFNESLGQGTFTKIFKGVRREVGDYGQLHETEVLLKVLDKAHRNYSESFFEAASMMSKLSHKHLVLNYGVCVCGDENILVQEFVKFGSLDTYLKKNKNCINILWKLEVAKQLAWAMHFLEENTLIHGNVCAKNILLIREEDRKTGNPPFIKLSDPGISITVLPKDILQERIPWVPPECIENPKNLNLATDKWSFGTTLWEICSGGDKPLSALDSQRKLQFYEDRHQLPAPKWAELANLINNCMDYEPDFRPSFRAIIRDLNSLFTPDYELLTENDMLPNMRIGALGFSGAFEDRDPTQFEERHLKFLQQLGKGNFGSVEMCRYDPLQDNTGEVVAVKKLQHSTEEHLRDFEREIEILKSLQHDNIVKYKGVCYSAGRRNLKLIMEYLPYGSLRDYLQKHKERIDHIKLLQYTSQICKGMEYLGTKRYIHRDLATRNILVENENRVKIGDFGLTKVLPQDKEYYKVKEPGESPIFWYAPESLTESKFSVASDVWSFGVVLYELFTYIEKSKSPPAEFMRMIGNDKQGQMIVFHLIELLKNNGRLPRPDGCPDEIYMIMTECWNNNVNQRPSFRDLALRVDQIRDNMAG

The Ki is a measure of affinity in units of concentration, obtained from inhibition or displacement. Read a high Ki as weaker binding. As to `COCCOc1nc(N[C@@H](C)c2ccc(F)cc2)cc(-c2c(N)nn3cccnc23)n1` [Compound 108], the inhibitory constant (Ki) at JAK-2 enzyme is less than 10 nM; at JAK3, 10 to 100 nM.
Taken in the same sequence, the figures for `C[C@H](Nc1cc(-c2c(N)nn3cccnc23)nc(OCCN2CCOCC2)n1)c1ccc(F)cc1` [Compound 109] were less than 10 nM and 10 to 100 nM.
On the same counts, the results for `CCC[C@H](Nc1cc(-c2c(N)nn3cccnc23)nc(S(C)(=O)=O)n1)c1ccc(F)cc1` [Compound 110] are less than 10 nM and 10 to 100 nM.
Taken in the same sequence, the figures for `C[C@H](Nc1cc(-c2c(N)nn3cccnc23)nc(S(C)(=O)=O)n1)c1ccc(F)cc1F` [Compound 111] were less than 10 nM and less than 10 nM.
Take `CCC[C@H](Nc1cc(-c2c(N)nn3cccnc23)nc(S(C)(=O)=O)n1)c1ccc(F)cc1F` [Compound 112]: the Ki was less than 10 nM on JAK-2 enzyme and 10 to 100 nM at JAK3.
Taken in the same sequence, the figures for `CC(C)[C@@H](Nc1cc(-c2c(N)nn3cccnc23)nc(S(C)(=O)=O)n1)c1ccc(F)cc1F` [Compound 113] were 100 to 500 nM and 500 to 5000 nM.
On the same counts, the results for `C[C@H](Nc1cc(-c2cnn3cccnc23)ncn1)c1ccc(F)cc1` [Compound 114] are less than 10 nM and 10 to 100 nM.
On the same counts, the results for `OCC[C@H](Nc1cc(-c2cnn3cccnc23)ncn1)c1ccccc1` [Compound 115] are 10 to 100 nM and 10 to 100 nM.
Turning to `CCC[C@H](Nc1cc(-c2cnn3cccnc23)ncn1)c1ccc(F)cc1` [Compound 116], the results for the Ki on JAK-2 enzyme and at JAK3 were less than 10 nM and 10 to 100 nM, respectively.
Taken in the same sequence, the figures for `C[C@H](Nc1cc(-c2cnn3cccnc23)ncn1)c1ccc(F)cc1F` [Compound 117] were less than 10 nM and 10 to 100 nM.
On the same counts, the results for `C[C@H](Nc1cc(-c2cnn3cccnc23)ncn1)c1ccc(F)c(F)c1` [Compound 118] are less than 10 nM and 10 to 100 nM.
`COCCNc1nc(N[C@@H](C)c2ccc(F)cc2)cc(-c2c(N)nn3cccnc23)n1` [Compound 119]: the inhibition constant (Ki) is less than 10 nM at JAK-2 enzyme and 10 to 100 nM on JAK3.
Take `CC(C)[C@@H](Nc1cc(-c2cnn3cccnc23)ncn1)c1ccc(F)cc1F` [Compound 120]: the Ki was in the range of 10 to 100 nM at JAK-2 enzyme and 100 to 500 nM at JAK3.
Taken in the same sequence, the figures for `CC(C)[C@H](Nc1cc(-c2cnn3cccnc23)ncn1)c1ccc(F)cc1F` [Compound 121] were less than 10 nM and 10 to 100 nM.
Regarding `CCC[C@H](Nc1cc(-c2cnn3cccnc23)ncn1)c1ccc(F)cc1F` [Compound 122], the Ki on JAK-2 enzyme is less than 10 nM; at JAK3 it was 10 to 100 nM.
Take `CCC[C@@H](Nc1cc(-c2cnn3cccnc23)ncn1)c1ccc(F)cc1F` [Compound 123]: the Ki at JAK-2 enzyme is 10 to 100 nM; at JAK3 it was 100 to 500 nM.
With `C[C@H](Nc1cc(-c2c(N)nn3cccnc23)nc(NCCN2CCOCC2)n1)c1ccc(F)cc1` [Compound 124], the inhibitory constant (Ki) on JAK-2 enzyme was less than 10 nM; on JAK3, 10 to 100 nM.
Taken in the same sequence, the figures for `CC(C)[C@H](Nc1cc(-c2c(N)nn3cccnc23)nc(N2CCOCC2)n1)c1ccc(F)cc1F` [Compound 125] were 10 to 100 nM and 100 to 500 nM.
On to `COCCOc1nc(N[C@@H](C)c2ccc(F)cc2F)cc(-c2c(N)nn3cccnc23)n1` [Compound 126], for which the inhibition constant Ki at JAK-2 enzyme and at JAK3 was less than 10 nM each time.
On to `CCN(CC)C(=O)COc1nc(N[C@@H](C)c2ccc(F)cc2F)cc(-c2c(N)nn3cccnc23)n1` [Compound 127], for which the figures for the Ki at JAK-2 enzyme and on JAK3 were 10 to 100 nM and 100 to 500 nM, respectively.
On to `C[C@H](Nc1cc(-c2c(N)nn3cccnc23)nc(OCCN2CCCC2=O)n1)c1ccc(F)cc1F` [Compound 128], for which the Ki at JAK-2 enzyme is less than 10 nM; at JAK3 it was 10 to 100 nM.
In the case of `CC(C)Oc1nc(N[C@@H](C)c2ccc(F)cc2F)cc(-c2c(N)nn3cccnc23)n1` [Compound 129], the inhibition constant (Ki) at JAK-2 enzyme lay within 10 to 100 nM; on JAK3, 100 to 500 nM.
On the same counts, the results for `C[C@H](Nc1cc(-c2c(N)nn3cccnc23)nc(OCC2CCOC2)n1)c1ccc(F)cc1F` (some centres unmarked) [Compound 130] are less than 10 nM and 10 to 100 nM.
Regarding `C[C@H](Nc1cc(-c2c(N)nn3cccnc23)nc(O)n1)c1ccc(F)cc1F` [Compound 131], the Ki at JAK-2 enzyme was less than 10 nM; on JAK3, 10 to 100 nM.
On the same counts, the results for `COc1nc(N[C@@H](C)c2ccc(F)cc2F)cc(-c2c(N)nn3cccnc23)n1` [Compound 132] are less than 10 nM and less than 10 nM.
In the case of `COCCN(C)c1nc(N[C@@H](C)c2ccc(F)cc2F)cc(-c2c(N)nn3cccnc23)n1` [Compound 133], the values for the Ki at JAK-2 enzyme and on JAK3 were 10 to 100 nM and 100 to 500 nM, respectively.
On to `C[C@H](Nc1cc(-c2c(N)nn3ccc(C(F)(F)F)nc23)ncn1)c1ccc(F)cc1` [Compound 134], for which the Ki at JAK-2 enzyme and on JAK3 was 10 to 100 nM in each case.
In the case of `C[C@H](Nc1cc(-c2c(N)nn3ccc(C(F)(F)F)nc23)ncn1)c1ccc(F)cc1F` [Compound 135], the values for the Ki on JAK-2 enzyme and on JAK3 were 10 to 100 nM and 100 to 500 nM, respectively.
For the compound `CC(C)[C@H](Nc1cc(-c2c(N)nn3ccc(C(F)(F)F)nc23)ncn1)c1ccc(F)cc1F` [Compound 136], the Ki on JAK-2 enzyme was in the range of 10 to 100 nM; at JAK3, 100 to 500 nM.
For `CCC[C@H](Nc1cc(-c2c(N)nn3ccc(C(F)(F)F)nc23)ncn1)c1ccc(F)cc1F` [Compound 137], the Ki at JAK-2 enzyme and on JAK3 was 100 to 500 nM throughout.
Take `COC(C)(C)CCOc1nc(N[C@@H](C)c2ccc(F)cc2F)cc(-c2c(N)nn3cccnc23)n1` [Compound 138]: the values for the Ki on JAK-2 enzyme and on JAK3 were less than 10 nM and 10 to 100 nM, respectively.
As to `C[C@H](Nc1cc(-c2c(N)nn3cccnc23)nc(OCC2CCCO2)n1)c1ccc(F)cc1F` (some centres unmarked) [Compound 139], the inhibition constant Ki was less than 10 nM on JAK-2 enzyme and 10 to 100 nM on JAK3.
Taken in the same sequence, the figures for `C[C@H](Nc1cc(-c2c(N)nn3cccnc23)nc(C#N)n1)c1ccc(F)cc1F` [Compound 140] were less than 10 nM and less than 10 nM.
`CNC(=O)CC(Nc1cc(-c2cnn3cccnc23)ncn1)c1ccc(F)cc1` (centres unmarked) [Compound 141]: the Ki at JAK-2 enzyme was less than 10 nM; on JAK3, 10 to 100 nM.
For `C[C@H](Nc1cc(-c2c(N)nn3cccnc23)nc(OCC2CCCN2)n1)c1ccc(F)cc1F` (some centres unmarked) [Compound 142], the Ki is 10 to 100 nM on JAK-2 enzyme and 100 to 500 nM on JAK3.
Take `C[C@H](Nc1cc(-c2c(N)nn3cccnc23)nc(OCC2(C)CC2)n1)c1ccc(F)cc1` [Compound 143]: the Ki at JAK-2 enzyme lay in the range of 10 to 100 nM; on JAK3, 100 to 500 nM.
Regarding `C[C@H](Nc1cc(-c2cnn3cccnc23)ncn1)c1ccc(Cl)cc1` [Compound 144], the Ki on JAK-2 enzyme was less than 10 nM; on JAK3, 100 to 500 nM.
As for `CC[C@H](Nc1cc(-c2cnn3cccnc23)ncn1)c1ccc(F)c(F)c1` [Compound 145], the inhibitory constant (Ki) at JAK-2 enzyme is less than 10 nM; on JAK3, 10 to 100 nM.
`C[C@@H](Nc1cc(-c2cnn3cccnc23)ncn1)c1ccc(Cl)cc1` [Compound 146]: the results for the Ki at JAK-2 enzyme and on JAK3 were 10 to 100 nM and 500 to 5000 nM, respectively.
Take `C[C@H](Nc1cc(-c2cnn3cccnc23)nc(N)n1)c1ccc(F)cc1F` [Compound 147]: the Ki is less than 10 nM at JAK-2 enzyme and 10 to 100 nM at JAK3.
